Assay results: patent US8940913B2, “Herbicides” (Syngenta Crop Protection, LLC, priority 2007, dated 2015)

Assays:
Type in all cases: in vivo
[1] = test system: Lolium perenne (LOLPE); test: Post-emergence herbicidal activity, glasshouse pot test; conditions: 360 h, rate 125 g/ha, evaluated 15 days later, 100=total damage to plant, 0=no damage to plant
Method: (§1) Monocotyledonous and dicotyledonous test plants were sown in standard soil in pots. After cultivation for one day (pre-emergence) or after 10 days cultivation (post-emergence) under controlled conditions in a glasshouse, the plants were sprayed with an aqueous spray solution derived from the formulation of the technical active ingredient in 0.6 ml acetone and 45 ml formulation solution containing 10.6% Emulsogen EL (Registry number 61791-12-6), 42.2% N-methylpyrrolidone, 42.2% dipropylene glycol monomethyl ether (Registry number 34590-94-8) and 0.2% X-77 (Registry number 11097-66-8). The test plants were then grown in a greenhouse under optimum conditions until, 15 days later for post-emergence and 20 days for pre-emergence, the test was evaluated (100=total damage to plant; 0=no damage to plant). Test Plants: Alopecurus myosuroides (ALOMY), Avena fatua (AVEFA), Lolium perenne (LOLPE), Setaria faberi (SETFA), Digitaria sanguinalis (DIGSA), Echinochloa crus-galli (ECHCG)

[2] = test system: Digitaria sanguinalis (DIGSA); test: as above; conditions: 360 h, rate 125 g/ha, evaluated 15 days later, 100=total damage to plant, 0=no damage to plant
Method: as §1

[3] = test system: Avena fatua (AVEFA); test: as above; conditions: 360 h, rate 125 g/ha, evaluated 15 days later, 100=total damage to plant, 0=no damage to plant
Method: as §1

[4] = test system: Alopecurus myosuroides (ALOMY); test: as above; conditions: 360 h, rate 125 g/ha, evaluated 15 days later, 100=total damage to plant, 0=no damage to plant
Method: as §1

[5] = test system: Setaria faberi (SETFA); test: as above; conditions: 360 h, rate 125 g/ha, evaluated 15 days later, 100=total damage to plant, 0=no damage to plant
Method: as §1

[6] = test system: Echinochloa crus-galli (ECHCG); test: as above; conditions: 360 h, rate 125 g/ha, evaluated 15 days later, 100=total damage to plant, 0=no damage to plant
Method: as §1

[7] = test system: Lolium perenne (LOLPE); test: Pre-emergence herbicidal activity, glasshouse pot test; conditions: 480 h, rate 250 g/ha, evaluated 20 days later, 100=total damage to plant, 0=no damage to plant
Method: as §1

[8] = test system: Digitaria sanguinalis (DIGSA); test: as above; conditions: 480 h, rate 250 g/ha, evaluated 20 days later, 100=total damage to plant, 0=no damage to plant
Method: as §1

[9] = test system: Avena fatua (AVEFA); test: as above; conditions: 480 h, rate 250 g/ha, evaluated 20 days later, 100=total damage to plant, 0=no damage to plant
Method: as §1

[10] = test system: Alopecurus myosuroides (ALOMY); test: as above; conditions: 480 h, rate 250 g/ha, evaluated 20 days later, 100=total damage to plant, 0=no damage to plant
Method: as §1

[11] = test system: Setaria faberi (SETFA); test: as above; conditions: 480 h, rate 250 g/ha, evaluated 20 days later, 100=total damage to plant, 0=no damage to plant
Method: as §1

[12] = test system: Echinochloa crus-galli (ECHCG); test: as above; conditions: 480 h, rate 250 g/ha, evaluated 20 days later, 100=total damage to plant, 0=no damage to plant
Method: as §1

Compound	pest or weed control at 125 g/ha [1] [%]	pest or weed control at 125 g/ha [2] [%]	pest or weed control at 125 g/ha [3] [%]	pest or weed control at 125 g/ha [4] [%]	pest or weed control at 125 g/ha [5] [%]	pest or weed control at 125 g/ha [6] [%]	pest or weed control at 250 g/ha [7] [%]	pest or weed control at 250 g/ha [8] [%]	pest or weed control at 250 g/ha [9] [%]	pest or weed control at 250 g/ha [10] [%]	pest or weed control at 250 g/ha [11] [%]	pest or weed control at 250 g/ha [12] [%]
Cc1cc(-c2ccccc2)cc(C)c1C1=C(OC(=O)C(C)C)[C@H]2[C@@H](C1=O)[C@@H]1CC[C@H]2O1 [Compound P2]	90	90	80	100	100	100	90	100	70	100	100	80
Cc1ccc(-c2cc(C)c(C3C(=O)[C@@H]4[C@H](C3=O)[C@H]3CC[C@@H]4O3)c(C)c2)cc1 (stereo partly drawn) [Compound T27]	70	60	40	70	70	70	30	40	30	0	40	60
CCc1ccc(-c2ccc(Cl)cc2)cc1C1=C(O)[C@H]2[C@@H](C1=O)[C@@H]1C=C[C@H]2O1 (racemic) [Compound T4, (1RS,2SR,6RS,7SR)-4-(4′-chloro-4-ethylbiphen-3-yl)-10-oxatricyclo[5.2.1.0^2,6]dec-8-ene-3,5-dione]	80	100	60	80	100	100	60	100	50	60	100	100
Cc1cc(-c2ccccc2)cc(C)c1C1=C(OC(=O)C(C)(C)C)[C@H]2[C@@H](C1=O)[C@]1(C)CC[C@H]2O1 [Compound P7]	80	100	100	100	100	100	100	100	90	100	100	90
CCc1ccc(-c2ccc(Cl)c(C(F)(F)F)c2)cc1C1=C(O)[C@H]2[C@@H](C1=O)[C@]1(C)CC[C@@]2(C)O1 [Compound T31]	40	100	80	90	100	100	20	30	50	0	10	60
Cc1cc(-c2ccccc2)cc(C)c1C1C(=O)[C@H]2[C@@H]3CC[C@@](C)(O3)[C@H]2C1=O (stereo partly drawn) [Compound T8]	70	100	90	100	100	100	80	100	50	90	100	100
CCc1ccc(-c2ccc(Cl)nc2Cl)cc1C1=C(O)[C@H]2[C@@H](C1=O)[C@@H]1CC[C@H]2O1 [Compound T21]	40	100	80	80	90	100	60	90	50	50	100	100
CCc1ccc(-c2ccc(Cl)cc2Cl)cc1C1=C(O)[C@H]2[C@@H](C1=O)[C@]1(C)CC[C@@]2(C)O1 [Compound T24]	60	100	90	90	100	100	30	100	30	10	100	100
CCc1ccc(-c2ccc(Cl)cc2Cl)cc1C1=C(O)[C@H]2[C@@H](C1=O)[C@@H]1CC[C@H]2O1 (racemic) [Compound T11, (1RS,2SR,6RS,7SR)-4-(2′,4′-dichloro-4-ethylbiphen-3-yl)-10-oxa-tricyclo[5.2.1.0^2,6]decane-3,5-dione]	50	90	90	100	100	100	80	90	60	70	100	100
CCc1ccc(-c2ccc(Cl)c(C(F)(F)F)c2)cc1C1=C(O)[C@H]2[C@@H](C1=O)[C@@H]1CC[C@H]2O1 [Compound T17]	40	100	90	90	100	100	20	90	0	0	80	90
CCc1ccc(-c2ccc(Cl)c(OC)c2)cc1C1=C(O)[C@H]2[C@@H](C1=O)[C@@H]1CC[C@H]2O1 [Compound T15]	40	100	90	100	100	100	20	90	10	20	80	100
Cc1cc(-c2ccccc2)cc(C)c1C1=C(OC(=O)C(C)(C)C)[C@H]2[C@@H](C1=O)[C@@H]1CC[C@@]2(C)O1 [Compound P8]	80	100	100	100	100	100	100	100	90	100	100	90
